Test results: patent publication US12595255B2, “Heteroaryl-substituted imidazole derivatives” (Hoffmann-La Roche Inc., priority 2021, dated 2026)
Where two headings read alike, the source gives them in different places.

System: Acinetobacter baumannii ATCC17961
Assay: Antimicrobial susceptibility testing: 90% growth inhibitory concentration (IC90) determination
Format: cell-based
Description: Assay Procedures Antimicrobial Susceptibility Testing: 90% Growth Inhibitory Concentration (IC90) Determination
The in vitro antimicrobial activity of the compounds was determined according to the following procedure:
The assay used a 10-points Iso-Sensitest broth medium to measure quantitatively the in vitro activity of the compounds against Acinetobacter baumannii ATCC17961.
Stock compounds in DMSO were serially twofold diluted (e.g. range from 50 to 0.097 μM final concentration) in 384 wells microtiter plates and inoculated with 49 μl the bacterial suspension in Iso-Sensitest medium to have a final cell concentration of ˜5×10^5 CFU/ml in a final volume/well of 50 μl/well. Microtiter plates were incubated at 35±2° C.
Bacterial cell growth was determined with the measurement of optical density at λ=600 nm each 20 minutes over a time course of 16 h. Growth inhibition was calculated during the logarithmic growth of the bacterial cells with determination of the concentration inhibiting 50% (IC50) and 90% (IC90) of the growth.
Table 1 provides the 90% growth inhibitory concentrations (IC90) in micromoles per liter of the compounds of present invention obtained against the strain Acinetobacter baumannii ATCC17961.

[1] = ATCC17961, 90% growth inhibitory concentration, Iso-Sensitest broth, OD 600 nm over 16 h, 35±2° C., read-out: ATCC 17961 IC90

Structure (SMILES)	IC90 [1] [µM]	IC90 (ATCC17961, 16 h, read-out: ATCC 17961 IC90 [μM]) [µM]
CN(C)c1ccc(-c2cnc(C(=O)Nc3ccc(C(=O)N4CCN(C(=O)C5CCNCC5)CC4)c(Cl)c3)n2C)c(F)n1 [Example E3, N-[3-chloro-4-[4-(piperidine-4-carbonyl)piperazine-1-carbonyl]phenyl]-5-[6-(dimethylamino)-2-fluoro-3-pyridyl]-1-methyl-imidazole-2-carboxamide]	0.47	–
CN(C)c1nc(F)c(-c2cnc(C(=O)Nc3ccc(C(=O)N4CCN(C(=O)CC5CC[N+](C)(C)CC5)CC4)c(Cl)c3)n2C)cc1F [Example D7, N-[3-chloro-4-[4-[2-(1,1-dimethylpiperidin-1-ium-4-yl)acetyl]piperazine-1-carbonyl]phenyl]-5-[6-(dimethylamino)-2,5-difluoro-3-pyridyl]-1-methyl-imidazole-2-carboxamide]	0.76	–
COc1ccc(-c2cnc(C(=O)Nc3ccc(C(=O)N4CCN(C(=O)C[C@@H]5CCNC5)CC4)c(Cl)c3)n2C)c(C(F)(F)F)n1 [Example A14, N-[3-chloro-4-[4-[2-[(3S)-pyrrolidin-3-yl]acetyl]piperazine-1-carbonyl]phenyl]-5-[6-methoxy-2-(trifluoromethyl)-3-pyridyl]-1-methyl-imidazole-2-carboxamide]	0.23	–
CN(C)c1nc(F)c(-c2cnc(C(=O)Nc3ccc(C(=O)NC4CCN(C(=O)[C@@H]5C[C@@H](O)CN5)CC4)c(Cl)c3)n2C)cc1F [Example F9, N-[3-chloro-4-[[1-[(2S,4R)-4-hydroxypyrrolidine-2-carbonyl]-4-piperidyl]carbamoyl]phenyl]-5-[6-(dimethylamino)-2,5-difluoro-3-pyridyl]-1-methyl-imidazole-2-carboxamide]	1.9	–
CN(C)c1nc(F)c(-c2cnc(C(=O)Nc3ccc(C(=O)N4CCC(C(=O)NC5CCNC5)CC4)c(Cl)c3)n2C)cc1F (stereo not drawn) [Example F10, 1-[2-chloro-4-[[5-[6-(dimethylamino)-2,5-difluoro-3-pyridyl]-1-methyl-imidazole-2-carbonyl]amino]benzoyl]-N-pyrrolidin-3-yl-piperidine-4-carboxamide]	0.64	–
CN(C)c1nc(F)c(-c2cnc(C(=O)Nc3ccc(C(=O)N4CCN(C(=O)C[N+](C)(C)C)CC4)c(Cl)c3)n2C)cc1F [Example D1, [2-[4-[2-chloro-4-[[5-[6-(dimethylamino)-2,5-difluoro-3-pyridyl]-1-methyl-imidazole-2-carbonyl]amino]benzoyl]piperazin-1-yl]-2-oxo-ethyl]-trimethyl-ammonium]	0.65	–
CN(C)c1nc(F)c(-c2cnc(C(=O)Nc3ccc(C(=O)N4CCN(C(=O)C5(O)CCNCC5)CC4)c(Cl)c3)n2C)cc1F [Example F1, N-[3-chloro-4-[4-(4-hydroxypiperidine-4-carbonyl)piperazine-1-carbonyl]phenyl]-5-[6-(dimethylamino)-2,5-difluoro-3-pyridyl]-1-methyl-imidazole-2-carboxamide]	0.27	–
Cn1c(-c2c(F)ccc3[nH]ccc23)cnc1C(=O)Nc1ccc(C(=O)N2CCN(C(=O)C[C@@H]3CCNC3)CC2)c(Cl)c1 [Example A1, N-[3-chloro-4-[4-[2-[(3S)-pyrrolidin-3-yl]acetyl]piperazine-1-carbonyl]phenyl]-5-(5-fluoro-1H-indol-4-yl)-1-methyl-imidazole-2-carboxamide]	–	0.23
COc1ccc(-c2cnc(C(=O)Nc3ccc(C(=O)N4CCN(C(=O)[C@@H]5[C@@H]6CNC[C@@H]65)CC4)c(Cl)c3)n2C)c(C(F)(F)F)n1 [Example A18, N-[4-[4-[(1R,5S)-3-azabicyclo[3.1.0]hexane-6-carbonyl]piperazine-1-carbonyl]-3-chloro-phenyl]-5-[6-methoxy-2-(trifluoromethyl)-3-pyridyl]-1-methyl-imidazole-2-carboxamide]	0.26	–
CN(C)c1nc(F)c(-c2cnc(C(=O)Nc3ccc(C(=O)NC4CCN(C(=O)[C@@H]5C[C@@H](O)C[N+]5(C)C)CC4)c(Cl)c3)n2C)cc1F [Example D12, N-[3-chloro-4-[[1-[(2S,4R)-4-hydroxy-1,1-dimethyl-pyrrolidin-1-ium-2-carbonyl]-4-piperidyl]carbamoyl]phenyl]-5-[6-(dimethylamino)-2,5-difluoro-3-pyridyl]-1-methyl-imidazole-2-carboxamide]	2.8	–
COc1cc(-c2cnc(C(=O)Nc3ccc(C(=O)N4CCN(C(=O)C5CCNCC5)CC4)c(Cl)c3)n2C)c(Cl)cn1 [Example A8, 5-(5-chloro-2-methoxy-4-pyridyl)-N-[3-chloro-4-[4-(piperidine-4-carbonyl)piperazine-1-carbonyl]phenyl]-1-methyl-imidazole-2-carboxamide]	0.57	–
COc1ccc(-c2cnc(C(=O)Nc3ccc(C(=O)N4CCN(C(=O)C5CCNCC5)CC4)c(Cl)c3)n2C)c(C(F)(F)F)n1 [Example A16, N-[3-chloro-4-[4-(piperidine-4-carbonyl)piperazine-1-carbonyl]phenyl]-5-[6-methoxy-2-(trifluoromethyl)-3-pyridyl]-1-methyl-imidazole-2-carboxamide]	0.28	–
CN(C)c1nc(F)c(-c2cnc(C(=O)Nc3ccc(C(=O)N4CCN(C(=O)C5CCNCC5)CC4)c(Cl)c3)n2C)cc1F [Example E2, N-[3-chloro-4-[4-(piperidine-4-carbonyl)piperazine-1-carbonyl]phenyl]-5-[6-(dimethylamino)-2,5-difluoro-3-pyridyl]-1-methyl-imidazole-2-carboxamide]	0.19	–
CN(C)c1nc(F)c(-c2cnc(C(=O)Nc3ccc(C(=O)N4CCN(C(=O)C5CC[N+](C)(C)CC5)CC4)c(Cl)c3)n2C)cc1F [Example D4, N-[3-chloro-4-[4-(1,1-dimethylpiperidin-1-ium-4-carbonyl)piperazine-1-carbonyl]phenyl]-5-[6-(dimethylamino)-2,5-difluoro-3-pyridyl]-1-methyl-imidazole-2-carboxamide]	0.6	–
CN(C)c1nc(F)c(-c2cnc(C(=O)Nc3ccc(C(=O)N4CCN(C(=O)C[C@@H]5CCNC5)CC4)c(Cl)c3)n2C)cc1F [Example F2, N-[3-chloro-4-[4-[2-[(3S)-pyrrolidin-3-yl]acetyl]piperazine-1-carbonyl]phenyl]-5-[6-(dimethylamino)-2,5-difluoro-3-pyridyl]-1-methyl-imidazole-2-carboxamide]	0.23	–
COc1cc(Cl)c(-c2cnc(C(=O)Nc3ccc(C(=O)N4CCN(C(=O)C5CCNCC5)CC4)c(Cl)c3)n2C)cn1 [Example A15, 5-(4-chloro-6-methoxy-3-pyridyl)-N-[3-chloro-4-[4-(piperidine-4-carbonyl)piperazine-1-carbonyl]phenyl]-1-methyl-imidazole-2-carboxamide]	0.66	–
COc1ccc(-c2cnc(C(=O)Nc3ccc(C(=O)N4CCN(C(=O)C5CCNCC5)CC4)c(Cl)c3)n2C)c(OC)n1 [Example A7, N-[3-chloro-4-[4-(piperidine-4-carbonyl)piperazine-1-carbonyl]phenyl]-5-(2,6-dimethoxy-3-pyridyl)-1-methyl-imidazole-2-carboxamide]	0.46	–
CN(C)c1nc(F)c(-c2cnc(C(=O)Nc3ccc(C(=O)N4CCN(C(=O)C5CC(CN)C5)CC4)c(Cl)c3)n2C)cc1F (stereo not drawn) [Example F7, N-[4-[4-[3-(aminomethyl)cyclobutanecarbonyl]piperazine-1-carbonyl]-3-chloro-phenyl]-5-[6-(dimethylamino)-2,5-difluoro-3-pyridyl]-1-methyl-imidazole-2-carboxamide]	0.39	–
